In the supplement of paper PMC10627819:

What was measured:
S. pneumoniae D39V [1] = assay: Bliss interaction score (quartile over a dose matrix) (fitness difference); higher = more antagonism (negative = synergy)
How it was run: (§1)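 Combination data were used to infer fitness under each single drug. Fitness is the OD595 at entry into stationary phase divided by the robust mean of the plate's no-drug wells, with a cap of 1. The Bliss score is the observed minus the expected product fitness, summarised by quartiles over technical, biological and donor/recipient replicates.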

S. aureus Newman [2] = assay: as above
How it was run: as §1

S. aureus DSM 20231 [3] = assay: as above
How it was run: as §1

B. subtilis 168 = assay: as above
How it was run: as §1

S. aureus Newman [4] = assay: fitness (endpoint OD595 vs no drug) (fraction); higher = more growth; conditions: partner 75 µg/mL, main component drawn
How it was run: (§2)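 In 384-well plates at 37 °C, cultures began at OD595 0.01 in 30 µl, with 55 µl used for S. pneumoniae. OD595 readings every 30 min for 14 h were corrected by the first reading. Fitness divides the stationary-phase transition optical density by the robust mean of no-drug control wells. The result is capped at 1.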

S. aureus DSM 20231 [5] = assay: as above
How it was run: as §2

S. pneumoniae D39V [6] = assay: as above
How it was run: as §2

[7] = first compound 0.125 µg/mL, partner 0.125 µg/mL
[8] = first compound 0.125 µg/mL, partner 0.25 µg/mL
[9] = first compound 0.125 µg/mL, partner 0.5 µg/mL
[10] = first compound 0.25 µg/mL, partner 0.125 µg/mL
[11] = first compound 0.25 µg/mL, partner 0.25 µg/mL
[12] = first compound 0.25 µg/mL, partner 0.5 µg/mL
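Wherever Bliss interaction score (quartile over a dose matrix) is given: first quartile when negative (synergy) and third quartile when positive (antagonism).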

Compound: CC1(C)S[C@@H]2[C@H](NC(=O)[C@H](N)c3ccc(O)cc3)C(=O)N2[C@H]1C(=O)O [Amoxicillin] + CC[C@H](C)[C@H](N)C1=N[C@H](C(=O)N[C@@H](CC(C)C)C(=O)N[C@H](CCC(=O)O)C(=O)N[C@H](C(=O)N[C@H]2CCCCNC(=O)[C@H](CC(N)=O)NC(=O)[C@@H](CC(=O)O)NC(=O)[C@H](Cc3cnc[nH]3)NC(=O)[C@@H](Cc3ccccc3)NC(=O)[C@H]([C@@H](C)CC)NC(=O)[C@@H](CCCN)NC2=O)[C@@H](C)CC)CS1 [Bacitracin]
- Bliss interaction score (S. pneumoniae D39V [1]; main component drawn): 0.104
- Bliss interaction score (S. aureus Newman [2]; main component drawn): 0.0659
- Bliss interaction score (S. aureus DSM 20231 [3]; main component drawn): -0.0167
- Bliss interaction score (B. subtilis 168; main component drawn): -0.101
- fitness (S. aureus Newman [4]; first compound 0.0625 µg/mL): 0.0143
- fitness (S. aureus Newman [4]; first compound 0.125 µg/mL): 0.0081
- fitness (S. aureus Newman [4]; first compound 0.25 µg/mL): 0.0047

Compound: CC1(C)S[C@@H]2[C@H](NC(=O)[C@H](N)c3ccc(O)cc3)C(=O)N2[C@H]1C(=O)O [Amoxicillin] + COc1cc(Cc2cnc(N)nc2N)cc(OC)c1OC [Trimethoprim]
- Bliss interaction score (S. pneumoniae D39V [1]): 0.174
- Bliss interaction score (S. aureus Newman [2]): 0.0661
- Bliss interaction score (S. aureus DSM 20231 [3]): -0.0714
- Bliss interaction score (B. subtilis 168): -0.139
- fitness (S. aureus DSM 20231 [5]; first compound 0.0625 µg/mL, partner 0.125 µg/mL): 0.511
- fitness (S. aureus DSM 20231 [5]; first compound 0.0625 µg/mL, partner 0.25 µg/mL): 0.401
- fitness (S. aureus DSM 20231 [5]; first compound 0.0625 µg/mL, partner 0.5 µg/mL): 0.0356
- fitness (S. aureus DSM 20231 [5]; first compound 0.0625 µg/mL, partner 1 µg/mL): 0.0213
- fitness (S. aureus DSM 20231 [5]; [7]): 0.189
- fitness (S. aureus DSM 20231 [5]; [8]): 0.11
- fitness (S. aureus DSM 20231 [5]; [9]): 0.0261
- fitness (S. aureus DSM 20231 [5]; first compound 0.125 µg/mL, partner 1 µg/mL): 0.0335
- fitness (S. aureus DSM 20231 [5]; [10]): 0.0479
- fitness (S. aureus DSM 20231 [5]; [11]): 0.037
- fitness (S. aureus DSM 20231 [5]; [12]): 0.033
- fitness (S. aureus DSM 20231 [5]; first compound 0.25 µg/mL, partner 1 µg/mL): 0.0125
- fitness (S. aureus DSM 20231 [5]; first compound 0.5 µg/mL, partner 0.125 µg/mL, one replicate): 0.0327
- fitness (S. aureus DSM 20231 [5]; first compound 0.5 µg/mL, partner 0.25 µg/mL, one replicate): 0.0355
- fitness (S. aureus DSM 20231 [5]; first compound 0.5 µg/mL, partner 0.5 µg/mL, one replicate): 0.0427

Compound: CO/N=C(\C(=O)N[C@@H]1C(=O)N2C(C(=O)[O-])=C(C[N+]3(C)CCCC3)CS[C@H]12)c1csc(N)n1 [Cefepime] + CC(=O)NC[C@H]1CN(c2ccc(N3CCOCC3)c(F)c2)C(=O)O1 [Linezolid]
- Bliss interaction score (S. pneumoniae D39V [1]): 0.165
- Bliss interaction score (S. aureus Newman [2]): 0.0424
- Bliss interaction score (S. aureus DSM 20231 [3]): 0.11
- Bliss interaction score (B. subtilis 168): 0.0847
- fitness (S. pneumoniae D39V [6]; first compound 0.007 µg/mL, partner 0.2 µg/mL): 0.827
- fitness (S. pneumoniae D39V [6]; first compound 0.007 µg/mL, partner 0.4 µg/mL): 0.567
- fitness (S. pneumoniae D39V [6]; first compound 0.007 µg/mL, partner 0.8 µg/mL): 0.253
- fitness (S. pneumoniae D39V [6]; first compound 0.0078 µg/mL, partner 0.105 µg/mL): 0.934
- fitness (S. pneumoniae D39V [6]; first compound 0.0078 µg/mL, partner 0.21 µg/mL): 0.825
- fitness (S. pneumoniae D39V [6]; first compound 0.0078 µg/mL, partner 0.42 µg/mL): 0.692
- fitness (S. pneumoniae D39V [6]; first compound 0.014 µg/mL, partner 0.2 µg/mL): 0.797
- fitness (S. pneumoniae D39V [6]; first compound 0.014 µg/mL, partner 0.4 µg/mL): 0.573
- fitness (S. pneumoniae D39V [6]; first compound 0.014 µg/mL, partner 0.8 µg/mL): 0.259
- fitness (S. pneumoniae D39V [6]; first compound 0.0155 µg/mL, partner 0.105 µg/mL): 0.912
- fitness (S. pneumoniae D39V [6]; first compound 0.0155 µg/mL, partner 0.21 µg/mL): 0.796
- fitness (S. pneumoniae D39V [6]; first compound 0.0155 µg/mL, partner 0.42 µg/mL): 0.608
- fitness (S. pneumoniae D39V [6]; first compound 0.028 µg/mL, partner 0.2 µg/mL): 0.751
- fitness (S. pneumoniae D39V [6]; first compound 0.028 µg/mL, partner 0.4 µg/mL): 0.512
- fitness (S. pneumoniae D39V [6]; first compound 0.028 µg/mL, partner 0.8 µg/mL): 0.244
- fitness (S. pneumoniae D39V [6]; first compound 0.031 µg/mL, partner 0.105 µg/mL): 0.645
- fitness (S. pneumoniae D39V [6]; first compound 0.031 µg/mL, partner 0.21 µg/mL): 0.504
- fitness (S. pneumoniae D39V [6]; first compound 0.031 µg/mL, partner 0.42 µg/mL): 0.258
- fitness (S. aureus DSM 20231 [5]; [7]): 0.843
- fitness (S. aureus DSM 20231 [5]; [8]): 0.625
- fitness (S. aureus DSM 20231 [5]; [9]): 0.287
- fitness (S. aureus DSM 20231 [5]; first compound 0.125 µg/mL, partner 1 µg/mL, one replicate): 0.0467
- fitness (S. aureus DSM 20231 [5]; [10]): 0.956
- fitness (S. aureus DSM 20231 [5]; [11]): 0.655
- fitness (S. aureus DSM 20231 [5]; [12]): 0.375
- fitness (S. aureus DSM 20231 [5]; first compound 0.25 µg/mL, partner 1 µg/mL, one replicate): 0.0593
- fitness (S. aureus DSM 20231 [5]; first compound 0.5 µg/mL, partner 0.125 µg/mL): 0.903
- fitness (S. aureus DSM 20231 [5]; first compound 0.5 µg/mL, partner 0.25 µg/mL): 0.669
- fitness (S. aureus DSM 20231 [5]; first compound 0.5 µg/mL, partner 0.5 µg/mL): 0.322
- fitness (S. aureus DSM 20231 [5]; first compound 0.5 µg/mL, partner 1 µg/mL, one replicate): 0.052
